Assay [1] deals with T1, Melanocortin receptor 4 (Homo sapiens, UniProt P32245). The assay is described as follows: Binding affinity against human melanocortin 4 receptor (hMC4R) using [125I]- ([Nle4]alpha-MSH) as radioligand; NA: Not active.
For assay [2], the target named is T1, Melanocortin receptor 4. The assay is described as follows: Binding affinity against human melanocortin 4 receptor (hMC4R) using [125I]- agouti related protein (AGRP) as radioligand; NA: Not active.
Assay [3] deals with T1, Melanocortin receptor 4. The assay is described as follows: Binding affinity against human melanocortin 4 receptor (hMC4R) using [125I]- agouti related protein (AGRP) as radioligand.
The target of assay [4] is T1, Melanocortin receptor 4. The assay is described as follows: Binding affinity against human melanocortin 4 receptor (hMC4R) using [125I]- ([Nle4]alpha-MSH) as radioligand.
Assay [5] has as its target T1, Melanocortin receptor 4. The assay is described as follows: Inhibitory activity against hMC4R (human melanocortin receptor) using [125I]-[Nle4] alpha-MSH as radioligand.
Assay [6] addresses T2, Melanocortin receptor 3 (Homo sapiens, UniProt P41968). The assay is described as follows: Inhibitory activity against hMC3R (human melanocortin receptor) using I-AGRP as radioligand.
The target of assay [7] is T1, Melanocortin receptor 4. The assay is described as follows: Inhibitory activity against hMC4R (human melanocortin receptor) using I-AGRP as radioligand.
The target in assay [8] is T2, Melanocortin receptor 3. The assay is described as follows: Inhibitory activity against hMC3R (human melanocortin receptor) using [125I]-[Nle4] alpha-MSH as radioligand.
For assay [9], the target named is T3, Melanocyte-stimulating hormone receptor (Homo sapiens, UniProt Q01726). The assay is described as follows: Inhibitory activity against hMC1R (human melanocortin receptor) using [125I]- ASIP Y radioligand.
The target of assay [10] is T1, Melanocortin receptor 4. The assay is described as follows: Binding affinity against human melanocortin 4 receptor (hMC4R) using [125I]- NDP-MSH as radioligand.
Assay [11] has as its target T3, Melanocyte-stimulating hormone receptor. The assay is described as follows: Inhibitory activity against hMC1R (human melanocortin receptor) using [125I]-[Nle4] alpha-MSH as radioligand.

T1 sequence (P32245 whole entry): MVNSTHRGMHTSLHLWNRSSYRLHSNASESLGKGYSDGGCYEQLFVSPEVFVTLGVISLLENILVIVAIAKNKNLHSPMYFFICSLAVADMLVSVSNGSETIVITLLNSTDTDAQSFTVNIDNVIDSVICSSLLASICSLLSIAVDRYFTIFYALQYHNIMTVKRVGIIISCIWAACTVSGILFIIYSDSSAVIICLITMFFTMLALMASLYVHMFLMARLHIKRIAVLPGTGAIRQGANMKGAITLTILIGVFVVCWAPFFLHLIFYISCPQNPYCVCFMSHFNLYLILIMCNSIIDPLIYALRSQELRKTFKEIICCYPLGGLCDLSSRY
T3 sequence (Q01726 whole entry): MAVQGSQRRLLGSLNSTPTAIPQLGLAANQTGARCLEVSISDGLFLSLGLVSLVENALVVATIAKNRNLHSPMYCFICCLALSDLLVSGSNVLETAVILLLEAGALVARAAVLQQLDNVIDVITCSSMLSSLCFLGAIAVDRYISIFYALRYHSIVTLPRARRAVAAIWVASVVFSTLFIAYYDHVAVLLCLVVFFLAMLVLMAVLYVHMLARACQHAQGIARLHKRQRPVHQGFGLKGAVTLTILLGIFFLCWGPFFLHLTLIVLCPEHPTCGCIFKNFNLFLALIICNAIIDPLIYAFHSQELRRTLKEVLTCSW
T2 sequence (P41968 whole entry): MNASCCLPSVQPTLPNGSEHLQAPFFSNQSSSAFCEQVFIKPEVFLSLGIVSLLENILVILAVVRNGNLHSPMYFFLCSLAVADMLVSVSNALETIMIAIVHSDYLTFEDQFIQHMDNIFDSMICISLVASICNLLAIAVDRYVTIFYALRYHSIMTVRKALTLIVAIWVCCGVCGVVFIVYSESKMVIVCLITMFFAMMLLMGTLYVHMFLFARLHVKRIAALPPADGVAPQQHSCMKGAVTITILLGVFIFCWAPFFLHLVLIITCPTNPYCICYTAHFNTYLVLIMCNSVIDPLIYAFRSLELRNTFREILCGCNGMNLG

Regarding `C[C@@H](c1ccccc1)N(CC(N)=O)C(=O)CN(Cc1ccccc1)C(=O)CNCCCN=C(N)N`, the IC50 entry on Melanocortin receptor 4 [1] and at Melanocortin receptor 4 [2] was “Not Active” in each case.

In the case of `C[C@H](c1ccccc1)N(CC(N)=O)C(=O)CN(Cc1ccccc1)C(=O)CNCCCN=C(N)N`, the IC50 at Melanocortin receptor 4 [3] and on Melanocortin receptor 4 [4] was more than 100 µM throughout.

Regarding `CC(C)(C(N)=O)N(Cc1ccccc1)C(=O)CN(CCc1ccccc1)C(=O)CNCCCN=C(N)N`, the IC50 (usually the midpoint of a concentration-inhibition curve) on Melanocortin receptor 4 [4] is more than 100 µM.

Consider `C[C@H](c1ccccc1)N(CC(N)=O)C(=O)CN(C(=O)CNCCCNC(=N)N)C(c1ccccc1)c1ccccc1`, for which the IC50 at Melanocortin receptor 4 [5] is 3.1 µM; on Melanocortin receptor 3 [6], more than 50 µM; at Melanocortin receptor 4 [7] it was 1.9 µM; at Melanocortin receptor 4 [3], 1.9 µM; on Melanocortin receptor 3 [8], 48 µM; at Melanocortin receptor 4 [4], 3.1 µM. Besides, the IC50 turned out to be 25 µM in assay [9], 2.1 µM on Melanocortin receptor 4 [10] and 9.1 µM in assay [11].

Take `NC(=O)CN(Cc1ccccc1)C(=O)CN(Cc1ccccc1)C(=O)CNCCCN=C(N)N`: the IC50 at Melanocortin receptor 4 [3] and at Melanocortin receptor 4 [4] was more than 100 µM in each case.
